Assay results published in patent US20050234043A1, “ACE inhibitor-vasopressin antagonist combinations” (priority 2000, published 2005).
Counter-ions that a name gives are not always drawn.

Key:
[1] = test system: urinary output (V2 antagonism); assay: Urinary output and osmolality in conscious dogs; assay type: in vivo
[2] = Pharmacokinetics in healthy subjects (Phase 1); settings: human
bacteria = assay: Mutagenicity in bacteria; assay type: cell-based
[3] = test system: AVP-induced pressor response (V1A antagonism); assay: Antagonism of AVP-induced pressor response, oral, rats; assay type: in vivo
[4] = test system: AVP-induced pressor response (V1A antagonism); assay: Antagonism of AVP-induced pressor response, IV, dogs; assay type: in vivo
subjects = assay: Safety in Phase 1 subjects; assay type: in vivo, human
Source text: Other adverse events included flushes, a sensation of cold extremities, abdominal complaints, abnormal stools, syncope, dizziness, palpitations, and postural hypotension. Three subjects who received YM087 and one subject who received placebo developed minor, reversible leukopenia. […] These observations were considered related to antagonism of V2 receptors and not a safety concern. Vital signs (blood pressure and heart rate) were unaffected by YM087.

rats [5] = assay: Teratogenicity in rats; assay type: in vivo
[6] = test system: AVP-induced platelet aggregation (V1A antagonist activity); assay: AVP-induced platelet aggregation in Phase 1 subjects; assay type: in vivo, human; settings: 20 mg/day orally or 2.5 mg IV
rabbits = assay: Teratogenicity in rabbits; assay type: in vivo
human lymphocytes = assay: Clastogenicity in human lymphocytes in vitro; assay type: cell-based
[7] = test system: aquaretic action (V2-receptor antagonism); assay: Aquaretic action in normal subjects; assay type: in vivo, human
rats [8] = settings: female rats, 13-week repeated oral dose
[9] = Oral pharmacokinetics in dog; assay type: in vivo
Source text: (§1) There is a marked food effect with absorption reduced by >50% in dogs after a meal.

dogs [10] = assay: 2- and 13-week oral toxicity studies in dogs; assay type: in vivo
rats [11] = assay: Reproductive performance / fertility studies in rats; assay type: in vivo
[12] = test system: dogs with heart failure induced by rapid right ventricular pacing; assay: Heart failure induced by rapid right ventricular pacing; assay type: in vivo; settings: IV 0.1 mg/kg
dogs [13] = settings: dog, in vivo, iv, 2 mg/kg
[14] = Oral pharmacokinetics in rat; assay type: in vivo
Source text: as §1

bone marrow of rats = assay: Clastogenicity in bone marrow of rats; assay type: in vivo
rats [15] = settings: rat, in vivo, iv, 2.5 mg/kg
[16] = test system: AVP-induced dermal vasoconstriction; assay: AVP-induced dermal vasoconstriction in Phase 1 subjects; assay type: in vivo, human; settings: 50 mg IV
[17] = test system: patients with NYHA Class III/IV heart failure; assay: Double-blind placebo-controlled IV dose-response study of cardiopulmonary hemodynamics in NYHA Class III/IV heart failure patients on ACE inhibitor background; assay type: in vivo, human; settings: CHF patients
Description: These patients have advanced CHF/LV dysfunction. Patients must be receiving background therapy of diuretics, ACE inhibitors, and optionally digoxin and/or β-blocker; patients will be stratified as to whether they are receiving concomitant β-blocker treatment. […] Patients should take their daily dose of concomitant heart failure medications within 2 hours of catheter insertion. No additional doses of background heart failure medications should be administered during the study treatment phase. After insertion of a balloon-floatation pulmonary artery catheter, serial measurements will be obtained over an 8- to 18-hour baseline and stabilization period. […] The mean baseline PCWP in this study group was 24.2 mmHg. The mean baseline CI was 2.1 L/min/m^2. […] Fluid intake will be restricted to 250 mL every 2 hours (except at time of IV infusion) from time of insertion of Swan-Ganz catheter and throughout the treatment period. […] Serum electrolytes, BUN, creatinine, and serum osmolality will be measured at baseline and 4 and 12 hours posttreatment. Clinical laboratory and vasopressin plasma levels will be measured at baseline and 12 hours postdrug administration. […] Patients meeting baseline eligibility criteria (CI≦2.6 L/min/m^2; PCWP≧16 mmHg) on successive readings at least 30 minutes apart during 2 hours prior to study drug administration will enter the treatment phase. […] Clinical laboratory and vasopressin plasma levels will be measured 12 hours postdose. […] Serum electrolytes, BUN, creatinine, serum osmolality will be measured at 4 and 12 hours posttreatment. […] For this study, hemodynamic efficacy parameters of PCWP, CI, SVR, and PVR will be evaluated in terms of their response profile. The response profile will be assessed in terms of peak change, and AUC delimited by the parameter change from baseline and measurement times. […] If measurements are missing at certain times, the AUC will be calculated using all other available observations. Dose response over the treatment groups will be assessed for selected measures. […]

Cc1nc2c([nH]1)-c1ccccc1N(C(=O)c1ccc(NC(=O)c3ccccc3-c3ccccc3)cc1)CC2 [YM087, N-[4-(2-methyl-,4,5,6-tetrahydrornidazo[4,5-d][1]benzazepin-6-ylcarbonyl)phenyl]biphenyl-2-carboxamide hydrochloride]
urinary output ([1]; conscious dogs, oral 0.03 to 0.3 mg/kg, dose-related): increased urinary output | urinary osmolality ([1]; conscious dogs, oral 0.03 to 0.3 mg/kg, reduced from 1500): < 100 mOsm/kg H2O | effect on urinary sodium (Na) or potassium (K) excretion ([1]; unlike furosemide): little or no effect | half-life ([2]; plasma): 4 to 5 h | bioavailability ([2]; plasma, oral): 43 to 59% | Tmax ([2]; plasma, po): ~1 h | plasma levels on repeated dosing ([2]; repeated BID oral doses, 60 mg): unexpectedly high plasma levels after the second dose | mutagenicity (bacteria): not mutagenic | dose that reduced the AVP response by 50% (ID50) [3]: 0.32 mg/kg | ID50, AVP-induced pressor response [4]: 0.026 mg/kg | overall safety (subjects; approximately 250 subjects treated): no major safety concerns were identified | urinary and plasma osmolarity (subjects; at higher doses, with or without an increase in plasma sodium): urinary osmolarity decreased and plasma osmolarity increased | biochemical or hematological laboratory parameters (subjects; human, in vivo): No drug-related trend was observed | vital signs (blood pressure and heart rate) (subjects; human, in vivo): unaffected | serious adverse event (subjects; one patient with severe CHF, 80 mg/day for 4 days, relation to study drug could not be excluded): generalized tonic clonic seizure | number of subjects who developed minor, reversible leukopenia (subjects; one subject on placebo also): Three | most frequent adverse events (subjects; regardless of treatment association): mild or moderate thirst and mild headache | teratogenicity (rats [5]): not teratogenic | AVP-induced platelet aggregation [6]: Inhibition | teratogenicity (rabbits): not teratogenic | clastogenicity (human lymphocytes): not clastogenic | duration of increased urine production rate postdosing ([7]; IV 50 mg/day): ≤ 6 h | duration of increased urine production rate postdosing ([7]; IV doses up to 250 μg/kg): up to 3 hours | tolerability of aquaretic effects ([7]; normal subjects, 120 mg QD or 60 mg BID orally or 50 mg IV): too uncomfortable in normal subjects to be tolerable | dose at which aquaretic action with decrease in urine osmolarity starts ([7]; normal subjects, IV): 0.05 mg/kg | dose at which aquaretic action with decrease in urine osmolarity starts ([7]; normal subjects, oral): 15 mg | uterine weights (rats [8]): decreased at all doses | time to peak concentrations [9]: 1 h | peripheral blood counts (dogs [10]; affected dogs, 13-week study): Decreased peripheral erythrocyte, leukocyte, and/or platelet counts | reversibility of bone marrow and peripheral blood changes (dogs [10]; dogs): reversible | bone marrow histopathology (dogs [10]; dogs, 2- and 13-week oral studies): Histopathologic changes in bone marrow were observed | female fertility (rats [11]; female rats, 100 mg/kg orally for 2 weeks prior to mating with untreated males): reduced fertility index, increased implantation loss, and decreased live fetuses | reproductive performance of male rats (rats [11]; male rats): did not affect | cardiac function [12]: significantly improved the depressed cardiac function | diuresis [12]: produced a water diuresis | toxicity (dogs [13]): No toxicity was observed | time to peak concentrations [14]: 0.5 h | clastogenicity (bone marrow of rats): not clastogenic | toxicity (rats [15]): No toxicity was observed | AVP-induced dermal vasoconstriction [16]: Total inhibition | pulmonary capillary wedge pressure (PCWP) ([17]; IV 10, 20 or 40 mg, 85% receiving ACE inhibitor, FIG. 1): significant reductions | right atrial pressure (RAP) ([17]; IV 10, 20 or 40 mg, 85% receiving ACE inhibitor, FIG. 2): significant reduction | hemodynamic effect as add-on therapy to ACE inhibitors ([17]; add-on to normal treatment with ACE inhibitors): surprisingly favorable hemodynamic effect
